The target of assay [1] is T1, Polyunsaturated fatty acid 5-lipoxygenase (Homo sapiens, UniProt P09917).
T1 sequence (P09917 whole entry): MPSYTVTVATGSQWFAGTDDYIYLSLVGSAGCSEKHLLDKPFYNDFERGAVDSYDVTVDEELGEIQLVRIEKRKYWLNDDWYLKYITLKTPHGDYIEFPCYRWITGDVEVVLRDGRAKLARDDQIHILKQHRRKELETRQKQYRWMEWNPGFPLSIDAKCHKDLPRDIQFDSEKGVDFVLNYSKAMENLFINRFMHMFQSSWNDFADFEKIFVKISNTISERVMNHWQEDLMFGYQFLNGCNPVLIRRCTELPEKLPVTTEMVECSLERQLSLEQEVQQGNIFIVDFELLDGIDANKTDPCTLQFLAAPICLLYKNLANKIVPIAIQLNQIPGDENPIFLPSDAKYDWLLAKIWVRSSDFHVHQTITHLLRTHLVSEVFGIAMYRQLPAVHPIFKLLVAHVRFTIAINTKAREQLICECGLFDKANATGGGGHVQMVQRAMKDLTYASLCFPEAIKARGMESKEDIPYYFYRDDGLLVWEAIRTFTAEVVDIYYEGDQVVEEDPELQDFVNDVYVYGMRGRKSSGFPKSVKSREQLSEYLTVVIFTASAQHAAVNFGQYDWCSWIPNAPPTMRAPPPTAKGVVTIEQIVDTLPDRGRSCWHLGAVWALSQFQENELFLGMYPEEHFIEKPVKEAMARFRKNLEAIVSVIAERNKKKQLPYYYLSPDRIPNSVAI
Kind of assay: Inhibition of 5-LOX in human PMNL cells assessed as reduction in 5-LOX product formation pre-incubated for 15 mins by HPLC method. In kind it is cell-based.

In assay [2] the target is T1, Polyunsaturated fatty acid 5-lipoxygenase. Kind of assay: Inhibition of 5-LOX in human PMNL cells assessed as reduction in 5-LOX product formation pre-incubated for 15 mins by HPLC based cell-free assay.
The next assay deals with T2, Prostaglandin E synthase (Homo sapiens, UniProt O14684).
T2 sequence (O14684 whole entry): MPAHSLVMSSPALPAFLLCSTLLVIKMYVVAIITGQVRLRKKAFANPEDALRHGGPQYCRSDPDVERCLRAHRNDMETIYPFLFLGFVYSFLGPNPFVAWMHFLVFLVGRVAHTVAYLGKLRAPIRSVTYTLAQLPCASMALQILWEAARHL
Kind of assay: Inhibition of mPGES-1 in human A549 cells microsomes assessed as reduction in PGE2 formation by RP-HPLC assay. In kind it is cell-based.

The target in assay [3] is T3, Peroxisome proliferator-activated receptor alpha (Homo sapiens) (UniProt Q07869).
T3 sequence (whole entry): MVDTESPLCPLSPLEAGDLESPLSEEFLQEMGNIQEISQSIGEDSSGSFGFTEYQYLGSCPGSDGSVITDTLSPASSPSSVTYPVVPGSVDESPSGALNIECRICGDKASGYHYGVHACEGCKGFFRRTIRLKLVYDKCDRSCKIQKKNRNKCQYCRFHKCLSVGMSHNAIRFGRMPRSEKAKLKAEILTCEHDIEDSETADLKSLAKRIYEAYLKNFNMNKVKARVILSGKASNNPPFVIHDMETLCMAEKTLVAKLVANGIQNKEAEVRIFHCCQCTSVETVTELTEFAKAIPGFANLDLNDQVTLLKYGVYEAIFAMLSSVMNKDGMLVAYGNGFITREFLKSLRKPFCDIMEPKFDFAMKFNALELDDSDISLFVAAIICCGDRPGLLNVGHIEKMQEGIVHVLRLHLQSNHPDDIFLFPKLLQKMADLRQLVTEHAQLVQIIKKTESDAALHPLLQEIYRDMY
Kind of assay: Activation of human PPARalpha ligand binding domain expressed in COS7 cells assessed as residual activity at 10 uM by luciferase reporter gene assay relative to GW7647. The class given is cell-based. The note with it: COS-7.

Assay [4] deals with T4, Peroxisome proliferator-activated receptor delta (Homo sapiens) (UniProt Q03181).
T4 sequence (whole entry): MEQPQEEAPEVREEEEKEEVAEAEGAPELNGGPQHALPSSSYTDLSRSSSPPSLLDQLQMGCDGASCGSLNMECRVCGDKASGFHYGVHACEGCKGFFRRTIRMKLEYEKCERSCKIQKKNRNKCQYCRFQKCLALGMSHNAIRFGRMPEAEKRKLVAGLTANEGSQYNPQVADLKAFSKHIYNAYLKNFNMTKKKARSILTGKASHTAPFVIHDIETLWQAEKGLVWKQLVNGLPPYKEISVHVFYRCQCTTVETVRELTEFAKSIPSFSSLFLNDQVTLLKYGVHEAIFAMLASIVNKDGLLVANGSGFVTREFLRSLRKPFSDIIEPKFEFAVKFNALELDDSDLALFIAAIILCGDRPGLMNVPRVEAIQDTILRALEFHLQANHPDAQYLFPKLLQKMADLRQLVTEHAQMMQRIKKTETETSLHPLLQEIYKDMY
Kind of assay: Activation of human PPARbeta ligand binding domain expressed in COS7 cells assessed as residual activity at 10 uM by luciferase reporter gene assay. In kind it is cell-based. The note with it: COS-7. (In general: A reporter such as luciferase makes a cellular process visible.)

The target in assay [5] is T5, Peroxisome proliferator-activated receptor gamma (Homo sapiens) (UniProt P37231).
T5 sequence (whole entry): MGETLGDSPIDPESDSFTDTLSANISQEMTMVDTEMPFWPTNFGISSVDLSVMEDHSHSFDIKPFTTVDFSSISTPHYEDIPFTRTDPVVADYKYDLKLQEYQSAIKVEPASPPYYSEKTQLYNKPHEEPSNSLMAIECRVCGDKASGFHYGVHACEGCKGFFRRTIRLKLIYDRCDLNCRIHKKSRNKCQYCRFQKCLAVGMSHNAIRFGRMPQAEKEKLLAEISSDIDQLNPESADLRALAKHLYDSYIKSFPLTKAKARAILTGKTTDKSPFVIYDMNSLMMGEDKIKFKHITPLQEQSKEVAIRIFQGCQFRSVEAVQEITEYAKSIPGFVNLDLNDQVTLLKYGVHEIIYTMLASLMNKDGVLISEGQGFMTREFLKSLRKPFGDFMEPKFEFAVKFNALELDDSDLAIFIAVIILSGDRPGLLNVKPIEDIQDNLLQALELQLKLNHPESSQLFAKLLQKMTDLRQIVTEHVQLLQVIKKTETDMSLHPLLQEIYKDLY
Kind of assay: Activation of human PPARgamma ligand binding domain expressed in COS7 cells assessed as residual activity at 10 uM by luciferase reporter gene assay relative to pioglitazone. The class given is cell-based. The note with it: COS-7.

Assay [6] addresses T6, Peroxisome proliferator-activated receptor alpha (Homo sapiens, UniProt Q07869).
T6 sequence (Q07869 whole entry): T3 sequence (whole entry)
Kind of assay: Activation of human PPARalpha ligand binding domain expressed in COS7 cells by luciferase reporter gene assay. In kind it is cell-based, COS-7.

For assay [7], the target named is T7, Peroxisome proliferator-activated receptor gamma (Homo sapiens, UniProt P37231).
T7 sequence (P37231 whole entry): T5 sequence (whole entry)
Kind of assay: Activation of human PPARgamma ligand binding domain expressed in COS7 cells by luciferase reporter gene assay. In kind it is cell-based, COS-7.

Assay [8] deals with T3, Peroxisome proliferator-activated receptor alpha (Homo sapiens). Kind of assay: Activation of human PPARalpha ligand binding domain expressed in COS7 cells by luciferase reporter gene assay relative to GW7647. On the set-up: concentration or dose not given beside the values. The class given is cell-based. The note with it: COS-7.
Assay [9] concerns the target T5, Peroxisome proliferator-activated receptor gamma (Homo sapiens). Kind of assay: Activation of human PPARgamma ligand binding domain expressed in COS7 cells by luciferase reporter gene assay relative to pioglitazone. The class given is cell-based. Further details: concentration or dose not given beside the values. The note with it: COS-7.
The target of assay [10] is T4, Peroxisome proliferator-activated receptor delta (Homo sapiens). Kind of assay: Activation of human PPARbeta ligand binding domain expressed in COS7 cells assessed as residual activity at 3 uM by luciferase reporter gene assay. The class given is cell-based. The note with it: COS-7.
Assay [11] concerns the target T3, Peroxisome proliferator-activated receptor alpha (Homo sapiens). Kind of assay: Activation of human PPARalpha ligand binding domain expressed in COS7 cells assessed as residual activity at 6 uM by luciferase reporter gene assay relative to GW7647. In kind it is cell-based. The note with it: COS-7.
Assay [12] has the same target. Kind of assay: Activation of human PPARalpha ligand binding domain expressed in COS7 cells assessed as residual activity at 3 uM by luciferase reporter gene assay relative to GW7647. In kind it is cell-based. The note with it: COS-7.

The source made the active and inactive calls. No cut-off for these calls is given here.

The values that follow come from ChEMBL document CHEMBL3352522 (Bioorg Med Chem Lett, 2014).

The IC50 is the concentration needed to halve the response being measured. As to `CCCCCCC(Sc1nc(Cl)cc(Nc2nc(-c3ccc(C(=O)O)cc3)cs2)n1)C(=O)O` (centres undefined), the IC50 (in assay [1]; in assay [2]; on Prostaglandin E synthase) was more than 10 µM each time. In addition, the outcome in [3], in assay [4] and in assay [5] was inactive.
`CCCCCCC(Sc1nc(Cl)cc(Nc2ccc3ncccc3c2)n1)C(=O)O` (centres undefined): the IC50 in assay [6] is 2.2 µM; in assay [7], 3.5 µM.
What is called EC50 is the concentration at which the effect is half-maximal. As for `CCC(Sc1nc(Cl)cc(Nc2nc(-c3ccc(Cl)cc3)cs2)n1)C(=O)O` (centres undefined), the EC50 came to 3.6 µM in assay [6] and 3.9 µM in assay [7]. For the same compound, the Activity was found to be 51% in assay [8] and 95% in [9]. Besides, the outcome in [4] was inactive.
Consider `O=C(O)CSc1nc(OCCc2ccccc2)cc(OCCc2ccccc2)n1`, for which, in assay [3], the inhibition entry is “inactive”. For the same compound, the IC50 in assay [7] is 3.7 µM.
Regarding `CCCCCCC(Sc1nc(Cl)cc(Nc2nc(-c3ccc(C)cc3)cs2)n1)C(=O)O` (centres undefined), the EC50 was determined as 8.2 µM in assay [6] and 7.2 µM in assay [7]. Besides, the Activity was 125% in [8] and 139% in assay [9]. Further, the result in assay [4] was inactive.
Taken in the same sequence, the figures for `CCCCC(Sc1nc(Cl)cc(Nc2nc(-c3ccc(Cl)cc3)cs2)n1)C(=O)O` (centres undefined) were 6.5 µM, 7.6 µM, 57%, 136% and “inactive”.
With `CCCCCCC(Sc1nc(Cl)cc(Nc2ccc(-c3ccc(C#N)cc3)cc2)n1)C(=O)O` (centres undefined), the IC50 in assay [6] is 0.19 µM; in [7] it was 1.5 µM.
`CCCCCCC(Sc1nc(Cl)cc(Nc2nc3c(s2)CCc2cc(OC)ccc2-3)n1)C(=O)O` (centres undefined): the results for the EC50 in assay [6] and in [7] were 5.4 µM and 3.7 µM, respectively. In addition, the figures for the Activity in assay [8] and in assay [9] were 229% and 86%, respectively. Moreover, the outcome in assay [10] was inactive.
On to `CCCCCCC(Sc1nc(Cl)cc(Nc2nc(-c3ccc(Cl)cc3)cs2)n1)C(=O)O` (centres undefined), for which the results for the EC50 in assay [6] and in [7] were 6.6 µM and 6.4 µM, respectively. The Activity in assay [8] was determined as 57%; in assay [9], 90%. In assay [4], the outcome was inactive.
`CCCCCCC(Sc1nc(Cl)cc(Nc2cccc(C)c2C)n1)C(=O)O` (centres undefined): the IC50 in assay [6] was 1 µM; in assay [7], 3.6 µM.
As to `CCCCCCC(Sc1nc(Cl)cc(Nc2nc(-c3ccc(F)cc3F)cs2)n1)C(=O)O` (centres undefined), the values for the Activity in assay [3] and in assay [9] were 18% and 145%, respectively. For the same compound, in assay [4], the result was inactive. This compound registered an EC50 in assay [7] of 3.6 µM.
Consider `CCCCCCC(Sc1nc(Cl)cc(Nc2nc(-c3ccc4ccccc4c3)cs2)n1)C(=O)O` (centres undefined), for which the values for the Activity in [11] and in assay [9] were 37% and 78%, respectively. In addition, in [4], the outcome was inactive. This compound also registered an EC50 in assay [7] of 1.3 µM.
Turning to `CCCCCCC(Sc1nc(Cl)cc(Nc2nc(-c3ccc([N+](=O)[O-])cc3)cs2)n1)C(=O)O` (centres undefined), the figures for the EC50 in assay [6] and in assay [7] were 2.9 µM and 3.4 µM, respectively. Also, the figures for the Activity in assay [8] and in assay [9] were 89.4% and 130%, respectively. In addition, the outcome in assay [4] was inactive.
Regarding `CCCCCCC(Sc1nc(Cl)cc(Nc2nc(-c3ccccc3)c(C)s2)n1)C(=O)O` (centres undefined), the Activity worked out at 23% in [11] and 99% in assay [9]. The outcome in assay [4] was inactive. This compound displayed a concentration giving a half-maximal response (EC50) in assay [7] of 2.3 µM.
With `CCCCCCC(Sc1nc(Cl)cc(Nc2nc(-c3ccc(F)c(F)c3)cs2)n1)C(=O)O` (centres undefined), the EC50 in [6] stood at 5.7 µM; in assay [7], 2.9 µM. Besides, the Activity came to 70% in assay [8] and 94% in assay [9]. Besides, the result in assay [4] was inactive.
On to `CCCCCCC(Sc1nc(Cl)cc(Nc2nc(-c3ccc(Br)cc3)c(C)s2)n1)C(=O)O` (centres undefined), for which the results for the EC50 in assay [6] and in assay [7] were 3.9 µM and 3.8 µM, respectively. The Activity in assay [8] stood at 102%; in assay [9] it was 144%. The result in [10] was inactive.
Regarding `Cc1cccc(Nc2cc(Cl)nc(SC(C(=O)O)c3cccc4ccccc34)n2)c1C` (centres undefined), the inhibition result in [3] is “inactive”. Besides, in assay [7], the IC50 was 6.2 µM.
Regarding `O=C(O)CSc1nc(Cl)cc(Nc2nc(-c3ccc(Cl)cc3)cs2)n1`, the Activity in [3] is 24.7%; in assay [5], 63%. Besides, the result in assay [4] was inactive.
Take `CCCCCCC(Sc1nc(Cl)cc(Nc2nc(-c3ccccc3)cs2)n1)C(=O)O` (centres undefined): the Activity in assay [11] was 55.4%; in assay [9], 108%. Moreover, the result in [4] was inactive. For the same compound, the EC50 in [7] amounted to 5.7 µM.
As for `CCCCCCC(Sc1nc(Cl)cc(Nc2nc(-c3ccc4c(c3)CCCC4)cs2)n1)C(=O)O` (centres undefined), the results for the Activity in assay [12] and in assay [9] were 52.9% and 107%, respectively. Besides, the result in [10] was inactive. The compound also had an EC50 in assay [7] of 4.1 µM.
